Measurements: patent US9328122B2, “7-substituted Hanfangichin B derivative, and preparation method and use thereof” (HANGZHOU BENSHENG PHARMACEUTICAL CO., LTD., priority 2012, dated 2016)
≈ marks a conversion by molar mass, not a printed value.

Legend:
[1] = system: Jurkat (acute lymphoblastic leukemia) cells; experiment: MTT cell growth inhibition, leukemia cells; assay type: cell-based, human; settings: Homo sapiens, Jurkat, 72 h, MTT; for IC50: read-out: IC50; for IC90: read-out: IC90
Procedure, shortened: (§1)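 Leukemia cells (6000 per well) in RPMI-1640 with 10% FBS were exposed to 7-substituted fangchinoline derivatives at varying concentrations the day after seeding. After 72 h at 37° C., 5% CO2, viable cell concentration was measured by MTT.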

[2] = system: Kasumi-1 (acute myeloid leukemia M2 type) cells; experiment: MTT cell growth inhibition, leukemia cells; assay type: cell-based, human; settings: Homo sapiens, Kasumi-1, 72 h, MTT; for IC50: read-out: IC50; for IC90: read-out: IC90
Procedure, shortened: as §1

[3] = system: RPMI 8226 (multiple myeloma) cells; experiment: MTT cell growth inhibition, multiple myeloma cells; assay type: cell-based, human; settings: Homo sapiens, RPMI 8226, 72 h, MTT; for IC50: read-out: IC50; for IC90: read-out: IC90
Procedure, shortened: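 Viable-cell readout by MTT after 72 h exposure (37° C, 5% CO2) of RPMI 8226 cells to a range of compound concentrations, added one day post-seeding. Cells were seeded at 6000 per well in RPMI-1640 containing 10% FBS.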

[4] = system: CNE (nasopharyngeal carcinoma) cells; experiment: MTT cell growth inhibition, solid tumor cells; assay type: cell-based, human; settings: Homo sapiens, CNE, 72 h, MTT; for IC50: read-out: IC50; for IC90: read-out: IC90
Procedure, shortened: (§2)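 In this assay, 6000 tumor cells per well received serially varied compound concentrations after a 24 h settling period in DMEM with 10% FBS. Plates stayed 72 h at 37 °C under 5% CO2, after which MTT quantified surviving cells.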

[5] = system: CaEs-17 (esophageal cancer) cells; experiment: MTT cell growth inhibition, solid tumor cells; assay type: cell-based, human; settings: Homo sapiens, CaEs17, CaEs-17, 72 h, MTT; for IC50: read-out: IC50; for IC90: read-out: IC90
Procedure, shortened: as §2

[6] = system: PANC-1 (pancreatic cancer) cells; experiment: MTT cell growth inhibition, solid tumor cells; assay type: cell-based, human; settings: Homo sapiens, PANC-1, 72 h, MTT; for IC50: read-out: IC50; for IC90: read-out: IC90
Procedure, shortened: as §2

[7] = system: PC-3 (prostate cancer) cells; experiment: MTT cell growth inhibition, solid tumor cells; assay type: cell-based, human; settings: Homo sapiens, PC-3, 72 h, MTT; for IC50: read-out: IC50; for IC90: read-out: IC90
Procedure, shortened: as §2

[8] = system: SK-OV-3 (ovarian cancer) cells; experiment: MTT cell growth inhibition, solid tumor cells; assay type: cell-based, human; settings: Homo sapiens, SK-OV-3, 72 h, MTT; for IC50: read-out: IC50; for IC90: read-out: IC90
Procedure, shortened: as §2

[9] = system: A549 (human lung cancer) cells; experiment: MTT cell growth inhibition, solid tumor cells; assay type: cell-based; settings: Homo sapiens, A549, 72 h, MTT; for IC50: read-out: IC50; for IC90: read-out: IC90
Procedure, shortened: as §2

[10] = system: Becap-37 (human breast cancer) cells; experiment: MTT cell growth inhibition, solid tumor cells; assay type: cell-based; settings: Homo sapiens, Becap-37, 72 h, MTT; for IC50: read-out: IC50; for IC90: read-out: IC90
Procedure, shortened: as §2

[11] = system: Hela (human cervical cancer) cells; experiment: MTT cell growth inhibition, solid tumor cells; assay type: cell-based; settings: Homo sapiens, Hela, 72 h, MTT; for IC50: read-out: IC50; for IC90: read-out: IC90
Procedure, shortened: as §2

[12] = system: Hep G2 (human liver cancer) cells; experiment: MTT cell growth inhibition, solid tumor cells; assay type: cell-based; settings: Homo sapiens, HepG2, Hep G2, 72 h, MTT; for IC50: read-out: IC50; for IC90: read-out: IC90
Procedure, shortened: as §2

[13] = system: Hep-2 (laryngeal carcinoma) cells; experiment: MTT cell growth inhibition, solid tumor cells; assay type: cell-based; settings: Homo sapiens, Hep-2, 72 h, MTT; for IC50: read-out: IC50; for IC90: read-out: IC90
Procedure, shortened: as §2

[14] = system: MG-63 (osteosarcoma) cells; experiment: MTT cell growth inhibition, solid tumor cells; assay type: cell-based; settings: Homo sapiens, MG-63, 72 h, MTT; for IC50: read-out: IC50; for IC90: read-out: IC90
Procedure, shortened: as §2

[15] = system: MGC-803 (human gastric cancer) cells; experiment: MTT cell growth inhibition, solid tumor cells; assay type: cell-based; settings: MGC-803, 72 h, MTT; for IC50: read-out: IC50; for IC90: read-out: IC90
Procedure, shortened: as §2

[16] = system: RKO (human colon adenocarcinoma) cells; experiment: MTT cell growth inhibition, solid tumor cells; assay type: cell-based; settings: Homo sapiens, RKO, 72 h, MTT; for IC50: read-out: IC50; for IC90: read-out: IC90
Procedure, shortened: as §2

[17] = system: U87-MG (malignant glioma) cells; experiment: MTT cell growth inhibition, solid tumor cells; assay type: cell-based; settings: Homo sapiens, U-87 MG, U87-MG, 72 h, MTT; for IC50: read-out: IC50; for IC90: read-out: IC90
Procedure, shortened: as §2

[18] = system: tumor; experiment: Antitumor activity compared with fangchinoline, overall statement; assay type: cell-based; settings: tumor type not specified

| IC50 [1] | IC90 [1] | IC50 [2] | IC90 [2] | IC50 [3] | IC90 [3] | IC50 [4] | IC90 [4] | IC50 [5] | IC90 [5] | IC50 [6] | IC90 [6] | IC50 [7] | IC90 [7] | IC50 [8] | IC90 [8] | IC50 [9] | IC90 [9] | IC50 [10] | IC90 [10] | Compound | also measured |
| --- | --- | --- | --- | --- | --- | --- | --- | --- | --- | --- | --- | --- | --- | --- | --- | --- | --- | --- | --- | --- | --- |
| 0.81 µg/mL (≈ 1.2 µM) | 2.94 µg/mL (≈ 4.34 µM) | 1.54 µg/mL (≈ 2.28 µM) | 3.94 µg/mL (≈ 5.82 µM) | 0.16 µg/mL (≈ 0.236 µM) | 0.98 µg/mL (≈ 1.45 µM) | 3.8 µg/mL (≈ 5.61 µM) | 7.2 µg/mL (≈ 10.6 µM) | 2.35 µg/mL (≈ 3.47 µM) | 10.7 µg/mL (≈ 15.8 µM) | 3.73 µg/mL (≈ 5.51 µM) | 10.4 µg/mL (≈ 15.4 µM) | 4.02 µg/mL (≈ 5.94 µM) | 10.5 µg/mL (≈ 15.5 µM) | 6.45 µg/mL (≈ 9.53 µM) | 15.4 µg/mL (≈ 22.7 µM) | 2.24 µg/mL (≈ 3.31 µM) | 5.59 µg/mL (≈ 8.26 µM) | 3.15 µg/mL (≈ 4.65 µM) | 7.22 µg/mL (≈ 10.7 µM) | COc1ccc2cc1Oc1ccc(cc1)C[C@H]1c3cc(c(OC)cc3CCN1C)Oc1c(OC(=O)C3CC3)c(OC)cc3c1[C@H](C2)N(C)CC3 [BS-FC-304] | IC50 [11]: 1.87 µg/mL (≈ 2.76 µM); IC90 [11]: 4.65 µg/mL (≈ 6.87 µM); IC50 [12]: 2.49 µg/mL (≈ 3.68 µM); IC90 [12]: 9.42 µg/mL (≈ 13.9 µM); IC50 [13]: 4.95 µg/mL (≈ 7.31 µM); IC90 [13]: 12.2 µg/mL (≈ 18.1 µM); IC50 [14]: 2.32 µg/mL (≈ 3.43 µM); IC90 [14]: 5.72 µg/mL (≈ 8.45 µM); IC50 [15]: 1.87 µg/mL (≈ 2.76 µM); IC90 [15]: 10.2 µg/mL (≈ 15.1 µM); IC50 [16]: 1.79 µg/mL (≈ 2.64 µM); IC90 [16]: 3.45 µg/mL (≈ 5.1 µM); IC50 [17]: 1.68 µg/mL (≈ 2.48 µM); IC90 [17]: 4.97 µg/mL (≈ 7.34 µM); antitumor activity compared with that of fangchinoline [18]: significantly superior |
| 1.42 µg/mL (≈ 1.85 µM) | 2.91 µg/mL (≈ 3.79 µM) | 3.22 µg/mL (≈ 4.2 µM) | 7.22 µg/mL (≈ 9.42 µM) | 0.13 µg/mL (≈ 0.17 µM) | 0.77 µg/mL (≈ 1 µM) | 3.38 µg/mL (≈ 4.41 µM) | 7.34 µg/mL (≈ 9.57 µM) | 3.1 µg/mL (≈ 4.04 µM) | 7.59 µg/mL (≈ 9.9 µM) | 3.62 µg/mL (≈ 4.72 µM) | 7.25 µg/mL (≈ 9.45 µM) | 3.95 µg/mL (≈ 5.15 µM) | 7.45 µg/mL (≈ 9.71 µM) | 6.19 µg/mL (≈ 8.07 µM) | 11.2 µg/mL (≈ 14.6 µM) | 2.7 µg/mL (≈ 3.52 µM) | 5.9 µg/mL (≈ 7.69 µM) | 3.36 µg/mL (≈ 4.38 µM) | 5.3 µg/mL (≈ 6.91 µM) | COc1ccc2cc1Oc1ccc(cc1)C[C@H]1c3cc(c(OC)cc3CCN1C)Oc1c(OCc3ccc(C(F)(F)F)cc3)c(OC)cc3c1[C@H](C2)N(C)CC3 [BS-FC-216] | IC50 [11]: 1.58 µg/mL (≈ 2.06 µM); IC90 [11]: 3.84 µg/mL (≈ 5.01 µM); IC50 [12]: 2.54 µg/mL (≈ 3.31 µM); IC90 [12]: 5.91 µg/mL (≈ 7.71 µM); IC50 [13]: 3.69 µg/mL (≈ 4.81 µM); IC90 [13]: 7.88 µg/mL (≈ 10.3 µM); IC50 [14]: 3.4 µg/mL (≈ 4.43 µM); IC90 [14]: 5.5 µg/mL (≈ 7.17 µM); IC50 [15]: 2.72 µg/mL (≈ 3.55 µM); IC90 [15]: 3.98 µg/mL (≈ 5.19 µM); IC50 [16]: 1.69 µg/mL (≈ 2.2 µM); IC90 [16]: 5.79 µg/mL (≈ 7.55 µM); IC50 [17]: 2.11 µg/mL (≈ 2.75 µM); IC90 [17]: 7.74 µg/mL (≈ 10.1 µM); antitumor activity compared with that of fangchinoline [18]: significantly superior |
| 0.72 µg/mL (≈ 0.944 µM) | 1.97 µg/mL (≈ 2.58 µM) | 1.93 µg/mL (≈ 2.53 µM) | 4.32 µg/mL (≈ 5.66 µM) | 0.14 µg/mL (≈ 0.184 µM) | 0.77 µg/mL (≈ 1.01 µM) | 3.5 µg/mL (≈ 4.59 µM) | 6.9 µg/mL (≈ 9.04 µM) | 2.47 µg/mL (≈ 3.24 µM) | 7.91 µg/mL (≈ 10.4 µM) | 3.16 µg/mL (≈ 4.14 µM) | 6.75 µg/mL (≈ 8.85 µM) | 3.17 µg/mL (≈ 4.16 µM) | 5.85 µg/mL (≈ 7.67 µM) | 1.92 µg/mL (≈ 2.52 µM) | 8.07 µg/mL (≈ 10.6 µM) | 2.41 µg/mL (≈ 3.16 µM) | 6.55 µg/mL (≈ 8.59 µM) | 2.49 µg/mL (≈ 3.26 µM) | 4 µg/mL (≈ 5.24 µM) | COc1ccc2cc1Oc1ccc(cc1)C[C@H]1c3cc(c(OC)cc3CCN1C)Oc1c(OS(=O)(=O)c3ccc(C)cc3)c(OC)cc3c1[C@H](C2)N(C)CC3 [BS-FC-102] | IC50 [11]: 1.44 µg/mL (≈ 1.89 µM); IC90 [11]: 3.39 µg/mL (≈ 4.44 µM); IC50 [12]: 1.56 µg/mL (≈ 2.04 µM); IC90 [12]: 3.94 µg/mL (≈ 5.16 µM); IC50 [13]: 3.99 µg/mL (≈ 5.23 µM); IC90 [13]: 11.1 µg/mL (≈ 14.5 µM); IC50 [14]: 3.18 µg/mL (≈ 4.17 µM); IC90 [14]: 4.83 µg/mL (≈ 6.33 µM); IC50 [15]: 1.71 µg/mL (≈ 2.24 µM); IC90 [15]: 4.95 µg/mL (≈ 6.49 µM); IC50 [16]: 1.44 µg/mL (≈ 1.89 µM); IC90 [16]: 2.33 µg/mL (≈ 3.05 µM); IC50 [17]: 1.79 µg/mL (≈ 2.35 µM); IC90 [17]: 5.39 µg/mL (≈ 7.06 µM); antitumor activity compared with that of fangchinoline [18]: significantly superior |
